The record followed here is PubChem BioAssay (NCI).

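Five concentrations, 48 hours, 96-well plates. At the TGI there is no net growth.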 Bounds are passed on as bounds.

For the first assay, the system named is DLD-1 colon. Put plainly: NCI tumour cell line growth inhibition, 48 h.
In turn, `N#C/C(=C1\SC(N=Nc2ccc(Cl)cc2)C(=O)N1c1ccccc1)c1nc2ccccc2[nH]1` (stereo not drawn) had a TGI of over 100 µM.
On to `c1ccc2[nH]c(CNc3ccc(C4C[Se]N=N4)cc3)nc2c1` (stereo not drawn), for which the TGI was over 100 µM.
The compound `Cc1ccc2oc(=O)c(-c3ccccc3)nc2c1` came in with a TGI of over 100 µM.
`O=C(O)/C=C\C(=O)Nc1ccc(S(=O)(=O)c2ccc(NC(=O)/C=C\C(=O)O)cc2)cc1` showed a TGI of over 100 µM.
Same read-out and setting: as for `COc1ccc(/C=N/n2c(C)nc3c(sc(=S)n3-c3ccccc3)c2=O)cc1`, the figure is over 100 µM; as for `CSc1nc2c(ncn2C2OC(CO)C(O)C(O)C2O)c(=O)[nH]1` (stereo not drawn), over 100 µM.
In turn, `Nc1ccccc1C(=O)C(Br)C(Br)c1ccc2c(c1)OCO2` (stereo not drawn) showed a TGI of over 100 µM.
In turn, `CCCCCCCCCCCC1CC(=O)NCCCN(C)CCCCN(C)CCCN1C` (stereo not drawn) had a TGI of 3 µM.
The compound `COc1cc(C2c3cc4c(cc3[C@@H](Nc3ccc5c(c3)OCO5)C3COC(=O)[C@H]23)OCO4)cc(OC)c1O` (stereo partly drawn) yielded a TGI of 5.45 µM.

The subject of the next assay is DMS 114 small cell lung. As to the kind of experiment: NCI tumour cell line growth inhibition, 48 h.
`O=C(NN1C(=O)CSC1c1cccc(F)c1)c1ccncc1` (stereo not drawn) displayed a TGI of over 100 µM.
The same measure, in the same setting: the figure for `c1ccc2[nH]c(CNc3ccc(C4C[Se]N=N4)cc3)nc2c1` (stereo not drawn) is 72.6 µM.
On the same count and under the same terms, as for `O=C(O)/C=C\C(=O)Nc1ccc(S(=O)(=O)c2ccc(NC(=O)/C=C\C(=O)O)cc2)cc1`, the figure is over 100 µM; as for `CSc1nc2c(ncn2C2OC(CO)C(O)C(O)C2O)c(=O)[nH]1` (stereo not drawn), over 100 µM; as for `Nc1ccccc1C(=O)C(Br)C(Br)c1ccc2c(c1)OCO2` (stereo not drawn), 40.2 µM.
Same read-out and setting: the figure for `CCCCCCCCCCCC1CC(=O)NCCCN(C)CCCCN(C)CCCN1C` (stereo not drawn) is 3.19 µM.

The test system of a further assay is DMS 273 small cell lung. As to the kind of experiment: NCI tumour cell line growth inhibition, 48 h.
`N#C/C(=C1\SC(N=Nc2ccc(Cl)cc2)C(=O)N1c1ccccc1)c1nc2ccccc2[nH]1` (stereo not drawn) came in with a TGI of over 100 µM.
`O=C(NN1C(=O)CSC1c1cccc(F)c1)c1ccncc1` (stereo not drawn): the TGI was over 100 µM.
For `c1ccc2[nH]c(CNc3ccc(C4C[Se]N=N4)cc3)nc2c1` (stereo not drawn), the TGI was over 100 µM.
The same measure, in the same setting: the figure for `Cc1ccc2oc(=O)c(-c3ccccc3)nc2c1` is 37.6 µM.
`CSc1nc2c(ncn2C2OC(CO)C(O)C(O)C2O)c(=O)[nH]1` (stereo not drawn): the TGI was over 100 µM.
The same measure, in the same setting: the figure for `Nc1ccccc1C(=O)C(Br)C(Br)c1ccc2c(c1)OCO2` (stereo not drawn) is 34 µM; for `CCCCCCCCCCCC1CC(=O)NCCCN(C)CCCCN(C)CCCN1C` (stereo not drawn) it is 2.61 µM.
`COc1cc(C2c3cc4c(cc3[C@@H](Nc3ccc5c(c3)OCO5)C3COC(=O)[C@H]23)OCO4)cc(OC)c1O` (stereo partly drawn) came in with a TGI of 1.4 µM.

In the next assay the test system is HOP-18 NSCLC. As to the kind of experiment: NCI tumour cell line growth inhibition, 48 h.
Take `c1ccc2[nH]c(CNc3ccc(C4C[Se]N=N4)cc3)nc2c1` (stereo not drawn): the TGI is over 100 µM.
In turn, `Cc1ccc2oc(=O)c(-c3ccccc3)nc2c1` returned a TGI of 84.4 µM.
Turning to `COc1ccc(/C=N/n2c(C)nc3c(sc(=S)n3-c3ccccc3)c2=O)cc1`, the TGI is over 100 µM.
Still for that read-out and setting: as for `CSc1nc2c(ncn2C2OC(CO)C(O)C(O)C2O)c(=O)[nH]1` (stereo not drawn), the figure is over 100 µM; as for `Nc1ccccc1C(=O)C(Br)C(Br)c1ccc2c(c1)OCO2` (stereo not drawn), 44.4 µM; as for `CCCCCCCCCCCC1CC(=O)NCCCN(C)CCCCN(C)CCCN1C` (stereo not drawn), 3.17 µM.
On the same count and under the same terms, as for `COc1cc(C2c3cc4c(cc3[C@@H](Nc3ccc5c(c3)OCO5)C3COC(=O)[C@H]23)OCO4)cc(OC)c1O` (stereo partly drawn), the figure is 11 µM.

The subject of a further assay is KM20L2 colon. Put plainly: NCI tumour cell line growth inhibition, 48 h.
On to `N#C/C(=C1\SC(N=Nc2ccc(Cl)cc2)C(=O)N1c1ccccc1)c1nc2ccccc2[nH]1` (stereo not drawn), for which the TGI was over 100 µM.
Still for that read-out and setting: as for `O=C(NN1C(=O)CSC1c1cccc(F)c1)c1ccncc1` (stereo not drawn), the figure is over 100 µM.
Consider `O=C(O)/C=C\C(=O)Nc1ccc(S(=O)(=O)c2ccc(NC(=O)/C=C\C(=O)O)cc2)cc1`, for which the TGI was over 100 µM.
`CSc1nc2c(ncn2C2OC(CO)C(O)C(O)C2O)c(=O)[nH]1` (stereo not drawn) yielded a TGI of over 100 µM.
`Nc1ccccc1C(=O)C(Br)C(Br)c1ccc2c(c1)OCO2` (stereo not drawn): the TGI amounted to 31 µM.
For `CCCCCCCCCCCC1CC(=O)NCCCN(C)CCCCN(C)CCCN1C` (stereo not drawn), the TGI is 3.01 µM.
Same read-out and setting: as for `COc1cc(C2c3cc4c(cc3[C@@H](Nc3ccc5c(c3)OCO5)C3COC(=O)[C@H]23)OCO4)cc(OC)c1O` (stereo partly drawn), the figure is over 24.3 µM.

In another assay the test system is M19-MEL melanoma. As to the kind of experiment: NCI tumour cell line growth inhibition, 48 h.
The compound `N#C/C(=C1\SC(N=Nc2ccc(Cl)cc2)C(=O)N1c1ccccc1)c1nc2ccccc2[nH]1` (stereo not drawn) registered a TGI of 95.4 µM.
Take `c1ccc2[nH]c(CNc3ccc(C4C[Se]N=N4)cc3)nc2c1` (stereo not drawn): the TGI is over 100 µM.
Still for that read-out and setting: as for `Cc1ccc2oc(=O)c(-c3ccccc3)nc2c1`, the figure is 64.8 µM.
Consider `O=C(O)/C=C\C(=O)Nc1ccc(S(=O)(=O)c2ccc(NC(=O)/C=C\C(=O)O)cc2)cc1`, for which the TGI was over 100 µM.
As for `COc1ccc(/C=N/n2c(C)nc3c(sc(=S)n3-c3ccccc3)c2=O)cc1`, the TGI is over 100 µM.
Still for that read-out and setting: the figure for `CSc1nc2c(ncn2C2OC(CO)C(O)C(O)C2O)c(=O)[nH]1` (stereo not drawn) is over 100 µM.
The same measure, in the same setting: the figure for `Nc1ccccc1C(=O)C(Br)C(Br)c1ccc2c(c1)OCO2` (stereo not drawn) is 39.6 µM; for `CCCCCCCCCCCC1CC(=O)NCCCN(C)CCCCN(C)CCCN1C` (stereo not drawn) it is 3.24 µM; for `COc1cc(C2c3cc4c(cc3[C@@H](Nc3ccc5c(c3)OCO5)C3COC(=O)[C@H]23)OCO4)cc(OC)c1O` (stereo partly drawn) it is over 100 µM.

Another assay has as its system P388 leukemia. As to the kind of experiment: NCI tumour cell line growth inhibition, 48 h.
Consider `CSc1nc2c(ncn2C2OC(CO)C(O)C(O)C2O)c(=O)[nH]1` (stereo not drawn), for which the TGI is over 100 µM.
On the same count and under the same terms, the figure for `COc1cc(C2c3cc4c(cc3[C@@H](Nc3ccc5c(c3)OCO5)C3COC(=O)[C@H]23)OCO4)cc(OC)c1O` (stereo partly drawn) is 0.393 µM.

The next assay deals with P388/ADR leukemia. Put plainly: NCI tumour cell line growth inhibition, 48 h.
`COc1cc(C2c3cc4c(cc3[C@@H](Nc3ccc5c(c3)OCO5)C3COC(=O)[C@H]23)OCO4)cc(OC)c1O` (stereo partly drawn) registered a TGI of 0.71 µM.

A further assay has as its system RXF-631 renal. As to the kind of experiment: NCI tumour cell line growth inhibition, 48 h.
Regarding `O=C(NN1C(=O)CSC1c1cccc(F)c1)c1ccncc1` (stereo not drawn), the TGI was over 100 µM.

The test system of the next assay is SN12K1 renal. Put plainly: NCI tumour cell line growth inhibition, 48 h.
With `CSc1nc2c(ncn2C2OC(CO)C(O)C(O)C2O)c(=O)[nH]1` (stereo not drawn), the TGI was over 100 µM.
Turning to `COc1cc(C2c3cc4c(cc3[C@@H](Nc3ccc5c(c3)OCO5)C3COC(=O)[C@H]23)OCO4)cc(OC)c1O` (stereo partly drawn), the TGI is 5.82 µM.

In a further assay the test system is SNB-78 CNS. As to the kind of experiment: NCI tumour cell line growth inhibition, 48 h.
For `N#C/C(=C1\SC(N=Nc2ccc(Cl)cc2)C(=O)N1c1ccccc1)c1nc2ccccc2[nH]1` (stereo not drawn), the TGI is over 100 µM.
As to `O=C(NN1C(=O)CSC1c1cccc(F)c1)c1ccncc1` (stereo not drawn), the TGI was over 100 µM.
Still for that read-out and setting: as for `O=C(O)/C=C\C(=O)Nc1ccc(S(=O)(=O)c2ccc(NC(=O)/C=C\C(=O)O)cc2)cc1`, the figure is over 100 µM.
On the same count and under the same terms, the figure for `CSc1nc2c(ncn2C2OC(CO)C(O)C(O)C2O)c(=O)[nH]1` (stereo not drawn) is over 100 µM; for `Nc1ccccc1C(=O)C(Br)C(Br)c1ccc2c(c1)OCO2` (stereo not drawn) it is 81 µM; for `CCCCCCCCCCCC1CC(=O)NCCCN(C)CCCCN(C)CCCN1C` (stereo not drawn) it is 3.27 µM.
